In a melting point compilation (Tetko et al.; mined from patent text by program, amines drawn as free bases though some values may be those of a salt):

First: O=C1CS(=O)(=O)CN1c1cccc(C(F)(F)F)c1
Second: FC(F)(F)C(=C1SCCCS1)c1ccccc1
The melting point of the first is higher: 115 to 117 °C for the first, 87 to 88 °C for the second.

First: CCS(=O)CC(=O)Nc1c(C)cccc1C (stereo not drawn)
Second: CCc1cccc(C)c1CNc1cc(C(=O)O)cc2c1nc(C)n2C
The melting point of the first is lower: 114 to 115 °C for the first, 312 to 314 °C for the second.

First: CC1(CN2CCC(C(=O)c3ccc(OC(F)(F)F)cc3)CC2)Cn2cc([N+](=O)[O-])nc2O1 (stereo not drawn)
Second: Cc1nccc(N2CCC(CN3CCN(S(=O)(=O)c4ccc(C(F)(F)F)cc4)CC3)CC2)n1
The melting point of the first is lower: 113 to 115 °C for the first, 135 to 136 °C for the second.

First: COc1ccc(CN2C(=O)C3(COc4cc5c(cc43)OCCO5)c3ccccc32)cn1 (stereo not drawn)
Second: Cc1nc(-c2cccc3c2C2(COc4cc5c(cc42)OCCO5)C(=O)N3C)cs1 (stereo not drawn)
The melting point of the first is lower: 161 to 162 °C for the first, 219 to 220 °C for the second.

Compared with `c1ccc(CN2CCC3(CC2)OCCO3)cc1`, `c1cnc(N2CCN(Cc3ccc4ccccc4c3)CC2)nc1` is higher in melting point: under 50 °C for the first, 109 to 110 °C for the second.

First: COc1ccc2oc(CC3CCCCC3)c(CC#N)c2c1
Second: COC(=O)c1cc(O)c2cc(OC)ccc2c1
The melting point of the first is lower: 73 °C for the first, 193 to 195 °C for the second.

First: O=C(Nc1ccc(Cl)nc1)N1CC2(c3ccc(Cl)cc3)COc3cc(Cl)ccc3C2=N1 (stereo not drawn)
Second: FC(F)(F)c1cc(Sc2ccc(Cl)cc2)c(-c2ccc(Cl)cc2)[nH]1
The melting point of the first is higher: over 250 °C for the first, 39 to 54 °C for the second.

Going from `CN(C)c1ccc(C(O)C#Cc2ccncc2)cc1` (stereo not drawn) to `CC#CCOc1ccc(SC(C(=O)NO)c2ccc(-c3cccs3)cc2)cc1` (stereo not drawn), the melting point rises from 117 °C to 182 °C.

Compared with `CC1(C)C=C(C(=O)CCCN2CCC(C(O)(c3ccccc3)c3ccccc3)CC2)C=CC1CCO` (stereo not drawn), `CC(COc1c(-c2ccccc2)c(=O)oc2c(-c3ccccc3)cccc12)CN1CCOCC1` (stereo not drawn) is lower in melting point: 135 to 137 °C for the first, 120 to 121 °C for the second.

Compared with `CCCc1c2c(nc3cc(F)c(F)cc13)-c1cc3c(c(=O)n1C2)COC(=O)CC3(O)CC` (stereo not drawn), `Cc1cc(=O)n(-c2cc(OC(C)C)c(Cl)cc2F)c(=O)n1C` is lower in melting point: 250 °C for the first, 149 to 151 °C for the second.

First: O=C(Nc1ccc2cc(CN3CCCCC3)ccc2c1)N1CCC(c2ccc(F)cc2)CC1
Second: CCc1nc(Cc2ccc(NC(=O)/C=C/c3cnn(C)c3-c3ccc(F)cc3)cc2)no1
The melting point of the first is higher: 209 to 211 °C for the first, 150 to 152 °C for the second.

Compared with `O=C1c2sccc2-n2cncc2[C@@H]2CCCN12`, `CC1Nc2ccccc2-c2c([N+](=O)[O-])cnn21` (stereo not drawn) is lower in melting point: 228 to 230 °C for the first, 173 to 175 °C for the second.

First: Cc1cc(C)c2c(c1C)OCC2c1ccccc1 (stereo not drawn)
Second: CCc1oc(C)cc(=O)c1C(=O)Nc1ccccc1
The melting point of the first is lower: 72 to 73 °C for the first, 154 to 156 °C for the second.

First: Cc1c(S(C)=O)c(C=NO)nn1-c1c(Cl)cc(C(F)(F)F)cc1Cl (stereo not drawn)
Second: CCC1(c2cn(-c3c(Cl)cc(C(F)(F)F)cc3Cl)nc2C#N)CC1(Br)Br (stereo not drawn)
The melting point of the first is higher: 210 to 214 °C for the first, 107 to 108 °C for the second.

Compared with `CC(C)(C)C1CCN(CCCC(=O)c2ccc3c(c2)-c2ccc(C(=O)CCCN4CCC(C(C)(C)C)CC4)c4cccc-3c24)CC1`, `COC(=O)C1=C(N)NC(C)=C([N+](=O)[O-])C1c1ccccc1S(=O)(=O)CCCCN1CCN(c2ccccc2OC)CC1` (stereo not drawn) is lower in melting point: 150 to 152 °C for the first, 145 to 147 °C for the second.

First: O=C1NC(=O)C(Cc2ccc(N3CCC(NC[C@H](O)c4ccc5nnnn5c4)CC3)cc2)S1 (stereo partly drawn)
Second: Cc1nc(N2CCN(CC3CC3)C2=O)sc1C(=O)NCc1ncccc1F
The melting point of the first is lower: 130 to 132 °C for the first, 142 to 144 °C for the second.

Compared with `Nc1cc(C(=O)O)cc(S(N)(=O)=O)c1Nc1ccccc1`, `CC(C(=O)NC1CC(C(=O)O)Nc2cc(Cl)cc(Cl)c21)c1ccccc1` (stereo not drawn) is lower in melting point: 251 °C for the first, 210 to 212 °C for the second.

Compared with `O=C(CBr)Nc1ccc(O)cc1C(=O)O`, `COc1ccc(C(=O)c2cccc(C(=O)O)c2)cc1` is lower in melting point: 213 to 215 °C for the first, 183 to 186 °C for the second.

First: Oc1ccc(O)c(-c2noc3cc(O)ccc23)c1
Second: Oc1ccc(-c2c(Br)ccc3sc4ccccc4c23)cc1
The melting point of the first is higher: 215 to 217 °C for the first, 185 to 186 °C for the second.

Compared with `O=C(O)C1CCc2nc3cc(Cl)ccc3c(Cl)c2C1` (stereo not drawn), `N#Cc1c2c(nn1-c1ccc(Cl)cc1F)CCCC2` is lower in melting point: over 250 °C for the first, 83 to 84 °C for the second.

First: CCCCCCCCCCCCCCCCCC(=O)Oc1cccc(C(=O)OCC)c1
Second: COc1cccc(C(CC(N)=O)CC(N)=O)c1
The melting point of the first is lower: 57 °C for the first, 161 to 162 °C for the second.

First: CC1CN(CC(=O)c2ccccc2)c2nc(-c3ccncc3)cc(=O)n2C1 (stereo not drawn)
Second: CN1Cc2cccnc2N(c2ccccc2)C1=O
The melting point of the first is higher: 202 to 203 °C for the first, 172 to 173 °C for the second.

First: Nc1cc(N)c(Cl)cc1Cl
Second: O=C(O)C1=Cc2c(Cl)ccc(Cl)c2OC1C(F)(F)F (stereo not drawn)
The melting point of the first is lower: 138 to 141 °C for the first, 206 to 207 °C for the second.

Compared with `Cc1cc(OCc2ccc(-c3ccccc3-c3nnn(C(c4ccccc4)(c4ccccc4)c4ccccc4)n3)cc2)c(CCl)c(C)n1`, `CCOC(=O)c1cn(-c2c(OCc3ccccc3)cccc2OCc2ccccc2)cn1` is higher in melting point: 110 to 112 °C for the first, 125 to 126 °C for the second.

First: CCn1c(C)c(C2(c3c(-c4ccccc4)[nH]c4ccccc34)OC(=O)C(Cl)=C2Cl)c2ccccc21 (stereo not drawn)
Second: CN(C)C(=O)c1c2ccc(Cl)cc2c(-c2ccccc2)n1C
The melting point of the first is higher: 225 °C for the first, 86 to 88 °C for the second.

First: CCCCOC(=O)c1cccc2c1-c1ccccc1C2=C(C#N)C#N
Second: CN(C)CCCOc1ccc(-c2nnc(CSCCOc3ccccc3)o2)cc1
The melting point of the first is higher: 99 to 100 °C for the first, 70 °C for the second.

First: Cc1c(F)c(F)c(C)c(C(=O)O)c1F
Second: COc1ccc(-c2sc3cc(OC)ccc3c2C(=O)O)cc1
The melting point of the first is lower: 118 to 119 °C for the first, 166 to 170 °C for the second.

First: COc1cc(S(C)(=O)=O)c(C)cc1OCC(=O)NCC(O)COc1ccccc1C (stereo not drawn)
Second: CNS(=O)(=O)c1cc(C(=O)CCCCCl)cc2c1CCC2
The melting point of the first is lower: 75 to 79 °C for the first, 107 to 109 °C for the second.

Compared with `CC1CC=C(c2nnn(C)n2)CN1C` (stereo not drawn), `O=C1CN2Cc3cc(OCCCCCCn4ccnc4)ccc3N=C2N1` is higher in melting point: 93 to 95 °C for the first, 188 to 189 °C for the second.

Compared with `CC(C)c1nc(O)c([N+](=O)[O-])c(O)n1`, `O=c1ccc2c([N+](=O)[O-])cccc2n1O` is lower in melting point: 300 °C for the first, 205 °C for the second.

Compared with `S=C1Nc2ccccc2Cn2cccc21`, `c1ccc2c(c1)NCCCO2` is lower in melting point: 228 to 231 °C for the first, 50 to 51 °C for the second.

First: O=[N+]([O-])c1ccc(C2Nc3ccccc3-c3c([N+](=O)[O-])cnn32)cc1 (stereo not drawn)
Second: O=[N+]([O-])c1cc(Cn2ccnc2)ccc1NCc1cccnc1
The melting point of the first is higher: 190 to 191 °C for the first, 171 °C for the second.

`CC(=O)Nc1cc(C)cc(C=O)n1` and `CSC1C(=O)Nc2c(C(=O)c3ccc(F)cc3)cc(Cl)cc21` (stereo not drawn) cannot be ordered by melting point: 202 °C for the first, 202 to 204 °C for the second.

First: CC(C)(C)n1ncc(SCc2ccc(Cl)cc2)c(Cl)c1=O
Second: N#CC(=Cc1ccc(Cl)cc1)c1c(Cl)cc(N2N=CCNC2=O)cc1Cl
The melting point of the first is higher: 142 to 143 °C for the first, 83 to 85 °C for the second.

First: O=C(O)CCCCC(=NOCc1ccc(OCc2noc(-c3ccccc3)n2)cc1)c1ccccc1
Second: CCC(O)(c1ccc(-c2ccccc2)cc1)C1CC=CC1 (stereo not drawn)
The melting point of the first is higher: 88 to 89 °C for the first, 82 to 84 °C for the second.

Going from `Cc1cc(OS(=O)(=O)c2c(Cl)cccc2Cl)cc2c(C3CCN(C)CC3)c[nH]c12` to `COc1ccc(-c2nc(Sc3cccc(OC)c3)n(C3CCCCO3)c2-c2ccc(OC)cc2)cc1` (stereo not drawn), the melting point falls from 179 °C to 123 °C.

For `FC(F)(F)Oc1ccc2nc(Cc3ccc4c(c3)CCCC4)[nH]c2c1`, the melting point was 88 to 90 °C.
